# Experimental data published in US12599136B2, “Substituted isophthalic acid diamides and their use as herbicides” (Bayer Aktiengesellschaft, priority 2020, dated 2026).
# Assays:
# Assay type in all cases: in vivo
# Stellaria media [1] = assay: Post-emergence herbicidal action against STEME; conditions: visual assessment about 3 weeks after treatment
# Method in brief: (§1)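 A WP or EC formulation diluted in water with 0.2% wetting agent was sprayed at 600 to 800 l/ha onto one-leaf-stage plants grown in sandy loam. About 3 weeks later, action was rated visually in percent, 100% being dead plants.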
# Amaranthus retroflexus [2] = assay: Pre-emergence herbicidal action against AMARE; conditions: visual score after 3 weeks vs untreated controls
# Method in brief: (§2)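 Greenhouse pots of sandy loam held seeds covered with soil, onto which the compound was applied before emergence. An aqueous suspension or emulsion of WP or EC was used at 600 to 800 l/ha with 0.2% wetting agent. Percent damage was judged visually at 3 weeks.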
# Abutilon theophrasti [3] = assay: Pre-emergence herbicidal action against ABUTH; conditions: visual score after 3 weeks vs untreated controls
# Method in brief: as §2
# Echinochloa crus-galli [4] = assay: Pre-emergence herbicidal action against ECHCG; conditions: visual score after 3 weeks vs untreated controls
# Method in brief: as §2
# Viola tricolor [5] = assay: Pre-emergence herbicidal action against VIOTR
# Method in brief: as §2
# Polygonum convolvulus [6] = assay: Post-emergence herbicidal action against POLCO; conditions: visual assessment about 3 weeks after treatment
# Method: (§3) Seeds of monocotyledonous and dicotyledonous weed and crop plants are laid out in sandy loam soil in wood-fiber pots, covered with soil and cultivated in a greenhouse under good growth conditions. 2 to 3 weeks after sowing, the test plants are treated at the one-leaf stage. The compounds of the invention, formulated in the form of wettable powders (WP) or as emulsion concentrates (EC), are then sprayed onto the green parts of the plants in the form of an aqueous suspension or emulsion at a water application rate equivalent to 600 to 800 l/ha, with addition of 0.2% wetting agent. After the test plants have been left to stand in the greenhouse under optimal growth conditions for about 3 weeks, the action of the preparations is assessed visually in comparison to untreated controls (herbicidal action in percent (%): 100% activity=the plants have died, 0% activity=like control plants). […] The tables below illustrate, in an illustrative manner, the post-emergence herbicidal action of the compounds of the invention, the herbicidal activity being stated in percent.
# Veronica persica [7] = assay: Pre-emergence herbicidal action against VERPE; conditions: 320 g/ha
# Method in brief: as §2
# Amaranthus retroflexus [8] = assay: Post-emergence herbicidal action against AMARE; conditions: visual assessment about 3 weeks after treatment
# Method in brief: as §1
# Echinochloa crus-galli [9] = assay: Post-emergence herbicidal action against ECHCG; conditions: visual assessment about 3 weeks after treatment
# Method in brief: as §1
# Stellaria media [10] = assay: Pre-emergence herbicidal action against STEME
# Method in brief: as §2
# Pharbitis purpurea [11] = assay: Pre-emergence herbicidal action against PHBPU; conditions: 320 g/ha; visual score after 3 weeks vs untreated controls
# Method in brief: as §2
# Viola tricolor [12] = assay: Post-emergence herbicidal action against VIOTR; conditions: 80 g/ha
# Method in brief: as §1
# Matricaria inodora [13] = assay: Pre-emergence herbicidal action against MATIN; conditions: visual score after 3 weeks vs untreated controls
# Method in brief: as §2
# Hordeum murinum = assay: Pre-emergence herbicidal action against HORMU; conditions: 320 g/ha; visual score after 3 weeks vs untreated controls
# Description: Seeds of monocotyledonous and dicotyledonous weed plants and crop plants are laid out in sandy loam soil in wood-fiber pots and covered with soil. The compounds of the invention, formulated in the form of wettable powders (WP) or as emulsion concentrates (EC), are then applied to the surface of the covering soil in the form of an aqueous suspension or emulsion at a water application rate equivalent to 600 to 800 l/ha, with addition of 0.2% wetting agent. After the treatment, the pots are placed in a greenhouse and kept under good growth conditions for the trial plants. The damage to the test plants is scored visually after a test period of 3 weeks by comparison with untreated controls (herbicidal activity in percent (%): 100% activity=the plants have died, 0% activity=like control plants). […] The tables below illustrate, in an illustrative manner, the post-emergence herbicidal action of the compounds of the invention, the herbicidal activity being stated in percent.
# Pharbitis purpurea [14] = assay: Post-emergence herbicidal action against PHBPU; conditions: visual assessment about 3 weeks after treatment
# Method in brief: as §1
# Matricaria inodora [15] = assay: Post-emergence herbicidal action against MATIN; conditions: visual assessment about 3 weeks after treatment
# Method in brief: as §1
# Setaria viridis [16] = assay: Pre-emergence herbicidal action against SETVI; conditions: 320 g/ha
# Method in brief: as §2
# Polygonum convolvulus [17] = assay: Pre-emergence herbicidal action against POLCO
# Method in brief: as §2
# Veronica persica [18] = assay: Post-emergence herbicidal action against VERPE; conditions: visual assessment about 3 weeks after treatment
# Method in brief: as §1
# Abutilon theophrasti [19] = assay: Post-emergence herbicidal action against ABUTH
# Method in brief: as §1
# Cyperus esculentus [20] = assay: Pre-emergence herbicidal action against CYPES; conditions: visual score after 3 weeks vs untreated controls
# Method in brief: as §2
# Alopecurus myosuroides [21] = assay: Pre-emergence herbicidal action against ALOMY; conditions: visual score after 3 weeks vs untreated controls
# Method in brief: as §2
# Avena fatua [22] = assay: Pre-emergence herbicidal action against AVEFA; conditions: 320 g/ha; visual score after 3 weeks vs untreated controls
# Method in brief: as §2
# Avena fatua [23] = assay: Post-emergence herbicidal action against AVEFA; conditions: 80 g/ha, visual assessment about 3 weeks after treatment
# Method in brief: as §1
# Cyperus esculentus [24] = assay: Post-emergence herbicidal action against CYPES; conditions: visual assessment about 3 weeks after treatment
# Method: as §3
# Alopecurus myosuroides [25] = assay: Post-emergence herbicidal action against ALOMY; conditions: 80 g/ha
# Method in brief: as §1
# Setaria viridis [26] = assay: Post-emergence herbicidal action against SETVI; conditions: 80 g/ha, visual assessment about 3 weeks after treatment
# Method in brief: as §1
# [27] = Dosage column 320 g/ha (heading prints 3200 g/ha)
smiles,measurement,setting,value
Cc1ccccc1N(C)C(=O)c1c(Cl)ccc(C(=O)Nc2nnnn2C)c1Cl [Example 1-399],Post-emergence action against STEME in %,Stellaria media [1]; 5 g/ha,80%
same,Post-emergence action against STEME in %,Stellaria media [1]; 20 g/ha,90%
same,Post-emergence action against STEME in %,Stellaria media [1]; 80 g/ha,100%
same,Pre-emergence action against AMARE,Amaranthus retroflexus [2]; 20 g/ha,90%
same,Pre-emergence action against AMARE,Amaranthus retroflexus [2]; 80 g/ha,100%
same,Pre-emergence action against AMARE,Amaranthus retroflexus [2]; 320 g/ha,100%
same,Pre-emergence action against ABUTH,Abutilon theophrasti [3]; 80 g/ha,100%
same,Pre-emergence action against ABUTH,Abutilon theophrasti [3]; [27],100%
same,Pre-emergence action against ECHCG,Echinochloa crus-galli [4]; 80 g/ha,100%
same,Pre-emergence action against ECHCG,Echinochloa crus-galli [4]; 320 g/ha,100%
same,Pre-emergence action against VIOTR,Viola tricolor [5]; 80 g/ha,100%
same,Pre-emergence action against VIOTR,Viola tricolor [5]; 320 g/ha,100%
same,Post-emergence action against POLCO in %,Polygonum convolvulus [6]; 80 g/ha,100%
same,Pre-emergence action against VERPE,Veronica persica [7],80%
same,Post-emergence action against AMARE in %,Amaranthus retroflexus [8]; 5 g/ha,100%
same,Post-emergence action against AMARE in %,Amaranthus retroflexus [8]; 20 g/ha,100%
same,Post-emergence action against AMARE in %,Amaranthus retroflexus [8]; 80 g/ha,100%
same,Post-emergence action against ECHCG in %,Echinochloa crus-galli [9]; 20 g/ha,80%
same,Post-emergence action against ECHCG in %,Echinochloa crus-galli [9]; 80 g/ha,100%
same,Pre-emergence action against STEME,Stellaria media [10]; 20 g/ha,90%
same,Pre-emergence action against STEME,Stellaria media [10]; 80 g/ha,90%
same,Pre-emergence action against STEME,Stellaria media [10]; 320 g/ha,100%
same,Pre-emergence action against PHBPU,Pharbitis purpurea [11],90%
same,Post-emergence action against VIOTR in %,Viola tricolor [12],100%
same,Pre-emergence action against MATIN,Matricaria inodora [13]; 80 g/ha,90%
same,Pre-emergence action against MATIN,Matricaria inodora [13]; 320 g/ha,100%
same,Pre-emergence action against HORMU,Hordeum murinum,90%
same,Post-emergence action against PHBPU in %,Pharbitis purpurea [14]; 80 g/ha,90%
same,Post-emergence action against MATIN in %,Matricaria inodora [15]; 20 g/ha,90%
same,Post-emergence action against MATIN in %,Matricaria inodora [15]; 80 g/ha,90%
same,Pre-emergence action against SETVI,Setaria viridis [16],100%
same,Pre-emergence action against POLCO,Polygonum convolvulus [17]; 320 g/ha,90%
same,Post-emergence action against VERPE in %,Veronica persica [18]; 20 g/ha,80%
same,Post-emergence action against VERPE in %,Veronica persica [18]; 80 g/ha,90%
same,Post-emergence action against ABUTH,Abutilon theophrasti [19]; 5 g/ha,80%
same,Post-emergence action against ABUTH,Abutilon theophrasti [19]; 20 g/ha,100%
same,Post-emergence action against ABUTH,Abutilon theophrasti [19]; 80 g/ha,100%
same,Pre-emergence action against CYPES,Cyperus esculentus [20]; 320 g/ha,90%
same,Pre-emergence action against ALOMY,Alopecurus myosuroides [21]; 80 g/ha,80%
same,Pre-emergence action against ALOMY,Alopecurus myosuroides [21]; 320 g/ha,100%
same,Pre-emergence action against AVEFA,Avena fatua [22],90%
CCCn1nnnc1NC(=O)c1ccc(C(F)(F)F)c(C(=O)N2CCCC2)c1Cl [Example 3-152],Post-emergence action against STEME in %,Stellaria media [1]; 5 g/ha,80%
same,Post-emergence action against STEME in %,Stellaria media [1]; 20 g/ha,80%
same,Post-emergence action against STEME in %,Stellaria media [1]; 80 g/ha,90%
same,Pre-emergence action against AMARE,Amaranthus retroflexus [2]; 20 g/ha,100%
same,Pre-emergence action against AMARE,Amaranthus retroflexus [2]; 80 g/ha,100%
same,Pre-emergence action against AMARE,Amaranthus retroflexus [2]; 320 g/ha,100%
same,Pre-emergence action against ABUTH,Abutilon theophrasti [3]; 20 g/ha,100%
same,Pre-emergence action against ABUTH,Abutilon theophrasti [3]; 80 g/ha,100%
same,Pre-emergence action against ABUTH,Abutilon theophrasti [3]; [27],100%
same,Pre-emergence action against ECHCG,Echinochloa crus-galli [4]; 80 g/ha,80%
same,Pre-emergence action against ECHCG,Echinochloa crus-galli [4]; 320 g/ha,100%
same,Pre-emergence action against VIOTR,Viola tricolor [5]; 80 g/ha,90%
same,Pre-emergence action against VIOTR,Viola tricolor [5]; 320 g/ha,90%
same,Post-emergence action against POLCO in %,Polygonum convolvulus [6]; 20 g/ha,90%
same,Post-emergence action against POLCO in %,Polygonum convolvulus [6]; 80 g/ha,90%
same,Pre-emergence action against VERPE,Veronica persica [7],100%
same,Post-emergence action against AMARE in %,Amaranthus retroflexus [8]; 5 g/ha,100%
same,Post-emergence action against AMARE in %,Amaranthus retroflexus [8]; 20 g/ha,100%
same,Post-emergence action against AMARE in %,Amaranthus retroflexus [8]; 80 g/ha,100%
same,Post-emergence action against ECHCG in %,Echinochloa crus-galli [9]; 20 g/ha,80%
same,Post-emergence action against ECHCG in %,Echinochloa crus-galli [9]; 80 g/ha,100%
same,Pre-emergence action against STEME,Stellaria media [10]; 20 g/ha,100%
same,Pre-emergence action against STEME,Stellaria media [10]; 80 g/ha,100%
same,Pre-emergence action against STEME,Stellaria media [10]; 320 g/ha,100%
same,Pre-emergence action against PHBPU,Pharbitis purpurea [11],100%
same,Post-emergence action against AVEFA in %,Avena fatua [23],100%
same,Post-emergence action against VIOTR in %,Viola tricolor [12],80%
same,Pre-emergence action against MATIN,Matricaria inodora [13]; 20 g/ha,80%
same,Pre-emergence action against MATIN,Matricaria inodora [13]; 80 g/ha,100%
same,Pre-emergence action against MATIN,Matricaria inodora [13]; 320 g/ha,100%
same,Post-emergence action against PHBPU in %,Pharbitis purpurea [14]; 20 g/ha,80%
same,Post-emergence action against PHBPU in %,Pharbitis purpurea [14]; 80 g/ha,100%
same,Post-emergence action against MATIN in %,Matricaria inodora [15]; 80 g/ha,90%
same,Pre-emergence action against SETVI,Setaria viridis [16],100%
same,Pre-emergence action against POLCO,Polygonum convolvulus [17]; 80 g/ha,80%
same,Pre-emergence action against POLCO,Polygonum convolvulus [17]; 320 g/ha,90%
same,Post-emergence action against VERPE in %,Veronica persica [18]; 80 g/ha,80%
same,Post-emergence action against ABUTH,Abutilon theophrasti [19]; 5 g/ha,90%
same,Post-emergence action against ABUTH,Abutilon theophrasti [19]; 20 g/ha,100%
same,Post-emergence action against ABUTH,Abutilon theophrasti [19]; 80 g/ha,100%
same,Post-emergence action against CYPES in %,Cyperus esculentus [24]; 20 g/ha,80%
same,Post-emergence action against CYPES in %,Cyperus esculentus [24]; 80 g/ha,80%
same,Pre-emergence action against CYPES,Cyperus esculentus [20]; 80 g/ha,80%
same,Pre-emergence action against CYPES,Cyperus esculentus [20]; 320 g/ha,90%
same,Pre-emergence action against ALOMY,Alopecurus myosuroides [21]; 320 g/ha,80%
same,Pre-emergence action against AVEFA,Avena fatua [22],100%
same,Post-emergence action against ALOMY,Alopecurus myosuroides [25],80%
same,Post-emergence action against SETVI in %,Setaria viridis [26],100%
